Results on two molecules are retold here after patent EP4789670A1, “PREPARATION CONTAINING URACIL DERIVATIVE” (Shionogi & Co., Ltd, priority 2023, dated 2025).

Converted amounts (≈) assume the structure as drawn.

One data set deals with SARS-CoV-2. Description: Cytopathic effect (CPE) suppression effect confirmation test using HEK293T/ACE2-TMPRSS2 cells. In kind it is cell-based. Particulars: Severe acute respiratory syndrome coronavirus 2, HEK-293T, 72 h, SARS-CoV-2 200-600 TCID50/well, cultured 3 days, CellTiter-Glo 2.0, read-out: 50% SARS-CoV-2 infected cell death inhibitory concentration (EC50). The protocol:
Test Example 1: Cytopathic Effect (CPE) Suppression Effect Confirmation Test Using HEK293T Cells Expressing Human TMPRSS2, ACE2 (HEK293T/ACE2-TMPRSS2 Cells)
The sample to be tested is diluted in advance to an appropriate concentration with DMSO, and a 2- to 5-fold series of serial dilutions is prepared and then dispensed into a 384-well plate.
HEK293T/ACE2-TMPRSS2 cells (GCP-SL222, 5×10^3 cells/well) and SARS-CoV-2 (200-600 TCID50/well) are mixed in a medium (MEM, 2% FBS, penicillin-streptomycin), the mixture is dispensed into the wells in which the sample to be tested has been introduced, and then the cells are cultured for 3 days in a CO2 incubator.
The plate that has been cultured for 3 days is returned to room temperature, subsequently CellTiter-Glo (registered trademark) 2.0 is dispensed into each well, and the plate is mixed using a plate mixer. After standing for a predetermined period of time, the luminescence signal (Lum) is measured using a plate reader.
Background: Damage to the host cells serves as the signal in cytopathic effect assays.

The nature of another data set: physchem. In kind it is physicochemical. As for the experimental part:
The solid dispersion obtained in Example 4D and the anhydrous crystal alone of the compound represented by Formula (I) (Example 4F-1) were added to various test media to prepare suspensions of 30 to 50 mL. The prepared suspensions were placed in centrifuge tubes and shaken at a shaking speed of 100 rpm or higher. After 60 minutes from the start of shaking, 5 mL of each suspension was collected and immediately filtered through a filter (Chromadisc, 0.45 µm, 25A) to obtain test samples.

Consider `N#CCn1c(N2CC3(C2)CC(F)(F)C3)c(-c2ccc(F)c(Cl)c2)c(=O)n(-c2cncc(Cl)c2)c1=O` [Compound (I)], for which the EC50 in the data set with SARS-CoV-2 was 1.66 nM.

For `N#CCn1c(N2CC3(C2)CC(F)(F)C3)c(-c2ccc(F)c(Cl)c2)c(=O)n(-c2cncc(Cl)c2)c1=O` [Example 4F-1], the solubility (usually the dissolved amount per volume that the medium holds) at 1 h in the data set “physchem” (diluted mcilvaine buffer, pH 4) was found to be 0.64 µg/mL (≈ 1.23 µM); in “physchem” (jp first dissolution test medium, pH 1.2) it was 1.08 µg/mL (≈ 2.07 µM); in “physchem” (jp second dissolution test medium, pH 6.8), 0.61 µg/mL (≈ 1.17 µM); in the data set “physchem” (purified water) it was 0.71 µg/mL (≈ 1.36 µM).
